US11752169B2, “Treatment of pain with polysulfated polysaccharides” (PARADIGM BIOPHARMACEUTICALS LTD., priority 2018, dated 2023)

Assays:
NGF = test: human NGF ELISA of culture supernatants of osteocyte-like cultures; format: cell-based; details: KOA or NOF osteocyte-like cultures, PPS 1, 5 or 50 μg/mL for 72 h vs untreated
Description: In order to maximise the clinical relevance of the findings from this study, the effects of PPS were to be tested on osteocyte-like cultures derived by differentiation in vitro for a period of 28 days from cells isolated from the subchondral bone of the proximal tibia of three patients with advanced knee OA who underwent total knee arthroplasty (TKA) surgery (KOA: Group 1). As a comparator group, cells isolated from the proximal femur of three patients who underwent total hip arthroplasty (THA) for neck of femur fracture (NOF: Group 2), were similarly differentiated and tested. The gender of all donors was female, and group were age matched, with the mean age of KOA being 77.0±8.5 years and that of the NOF group being 77.7±5.5 years (p=0.91).
Cryopreserved cells from each donor (all at passage 0 or 1) were thawed and cultured for 10d in T75 cm^2 tissue culture flasks. Once confluent, cells were removed by collagenase/dispase digestion, washed by centrifugation, counted and adjusted to 5×10^5 cells/mL. Cells were then seeded into either 12-well tissue culture trays or into 8-well chamber slides, at 1×10^5 and 2×10^4 cells/well, respectively. […]

proNGF = proNGF ELISA of culture supernatants of osteocyte-like cultures treated with rhTNF and PPS; format: cell-based, human
Description: In order to maximise the clinical relevance of the findings from this study, the effects of PPS were to be tested on osteocyte-like cultures derived by differentiation in vitro for a period of 28 days from cells isolated from the subchondral bone of the proximal tibia of three patients with advanced knee OA who underwent total knee arthroplasty (TKA) surgery (KOA: Group 1). As a comparator group, cells isolated from the proximal femur of three patients who underwent total hip arthroplasty (THA) for neck of femur fracture (NOF: Group 2), were similarly differentiated and tested. […]
Cryopreserved cells from each donor (all at passage 0 or 1) were thawed and cultured for 10d in T75 cm^2 tissue culture flasks. Once confluent, cells were removed by collagenase/dispase digestion, washed by centrifugation, counted and adjusted to 5×10^5 cells/mL. […]
To examine further the effects of PPS on NGF expression, osteocyte-like cultures derived from three KOA and three NOF donor osteoblasts were treated after 3 days pre-treatment with differing concentrations of PPS, with rhTNFα in the absence or presence of the pre-treatment concentration of PPS. […] Therefore, in this study proNGF levels were also measured in the treated supernatants, as described in Materials and Methods.

NGF mRNA = test: real-time RT-PCR for NGF mRNA in osteocyte-like cultures; format: cell-based, human
Experimental: FIG. 23. Effects of combinations of rhTNF and PPS on NGF gene expression in osteocyte-like cultures. Human differentiated osteocyte-like cultures were either untreated or pretreated with PPS (0.1 or 1.0 μg/mL) for 24 h, then with or without rhTNFα (1 ng/mL) for a further 48 h, and then real-time RT-PCR was performed for NGF mRNA. Data are mean+SD of triplicate real-time RT-PCR reactions normalised to the mRNA expression of the housekeeping gene ACTB.
FIG. 28. Effects of combinations of rhTNF and PPS on NGF gene expression in osteocyte-like cultures. Human differentiated osteocyte-like cultures were either untreated or pretreated with PPS (0.1 or 1.0 μg/mL) for 24 h, then with or without rhTNFα (1 ng/mL) for a further 48 h, and then real-time RT-PCR was performed for NGF mRNA. Data are mean+SD of triplicate real-time RT-PCR reactions normalised to the mRNA expression of the housekeeping gene ACTB.
Cryopreserved cells from each donor (all at passage 0 or 1) were thawed and cultured for 10d in T75 cm^2 tissue culture flasks. Once confluent, cells were removed by collagenase/dispase digestion, washed by centrifugation, counted and adjusted to 5×10^5 cells/mL. Cells were then seeded into either 12-well tissue culture trays or into 8-well chamber slides, at 1×10^5 and 2×10^4 cells/well, respectively. After 24 h, media were replaced with osteogenic differentiation medium, consisting of αMEM, 5% v/v foetal calf serum (FCS), 1.8 mM potassium dihydrogen phosphate (KH2PO4), 100 μM Ascorbate-2-phosphate (As2P), 10 mM HEPES, 10^−8 M Dexamethasone and 0.2 mM L-Glutamine. During the differentiation process, samples were collected at days 3, 14 and 28 in Trizol reagent for total RNA preparation and gene expression analysis (see below). Cultures seeded into chamber slides were examined for in vitro mineralisation using the Alizarin Red staining technique, as previously described.
PPS was manufactured by bene pharmaChem GmbH & Co. KG, Geretstried, Germany. This was dissolved in sterile PBS as a stock solution at 1.0 mg/mL. Differentiated cells were either untreated or pre-treated with final concentrations of PPS at 1, 5 or 50 μg/mL in culture medium for 72 h. The tested doses of PPS were based on the effective and maximally active levels published in a previous study. Media were then replaced with the same concentrations of PPS with or without the addition of recombinant human (rh) TNFα (1 ng/mL) and then cultured for a further 48 h. Culture supernatants were collected and total RNA and cDNA prepared, as described below. This generated 8 conditions (Untreated, TNF, PPS1, PPS5, PPS50, TNF+PPS1, TNF+PPS5, TNF+PPS50) from 6 donors.
Total RNA was prepared from Trizol lysates, according to the manufacturer's instructions, with the exception that due to evidence for PPS interference in the generation of assayable cDNA, RNA precipitates were washed 3 times in 75% ethanol instead of the usual single wash step, in an attempt to remove residual PPS. RNA preparations were tested for yield and purity using a Nanodrop microvolume spectrophotometer (Thermo Fisher). One microgram of RNA from each sample was reverse transcribed using a Superscript™ II kit (Thermo Fisher), as per manufacturer's instructions. Real-time RT-PCR was performed for genes including Nerve Growth Factor (NGF), its receptors NTRK1 (TRKA) and NGFR (P75NTR), MMP13, Cyclooxygenase-2 (COX-2), Interleukin-6 (IL-6) RANKL, OPG, OCN, DMP1 and SOST, relative to housekeeping gene (18S, ACTB) expression. […]

Sodium Pentosan Polysulfate [PPS]
secreted levels of mature NGF protein (ELISA) (NGF): increased | effect of rhTNF on proNGF secretion (proNGF; KOA and NOF cultures, rhTNFα 1 ng/mL 48 h after 3 days PPS pre-treatment, all PPS concentrations tested): strongly reversed | basal proNGF secretion (proNGF; all donors' cells (KOA and NOF), all PPS concentrations tested (1, 5, 50 μg/mL)): strongly suppressed | NGF mRNA levels, PPS in combination with rhTNFα (NGF mRNA; KOA1 and KOA2 cultures, PPS 1 μg/mL + rhTNFα 1 ng/mL, 48 h, relative to 18S rRNA (FIG. 16)): strongly suppressed | NGF mRNA levels, PPS alone (NGF mRNA; KOA1 and KOA2 cultures, PPS 1 μg/mL, 72 h pre-treatment + 48 h, relative to 18S rRNA (FIG. 16)): strongly suppressed | NGF expression (mRNA) in the presence of TNFα (NGF mRNA; PPS at 1 μg/mL, 24 h pre-treatment, rhTNFα 1 ng/mL 48 h, normalised to ACTB (FIG. 23)): significantly reduced | NGF expression (mRNA) in the presence of TNFα (NGF mRNA; PPS at 1 mg/mL (so in the source), FIG. 28, normalised to ACTB): significantly reduced | basal NGF mRNA levels (NGF mRNA; PPS at both 0.1 and 1 μg/mL, 24 h pre-treatment + 48 h, normalised to ACTB (FIG. 23)): no apparent effect
